{"source": "patent US20090170858A1", "about": "“Methods and Compositions Containing Natural Folates for Protecting Against Radiation Damage” (priority 2005, published 2009)", "key": {"[1]": {"protocol": "(§1) UVA and UVB irradiation were carried out under the following conditions. Samples were exposed to UV light at a distance of 30 cm from either a 15 W UVA lamp, Sylvania 350 BL, (lambda max=365 nm, 820 μW/cm2) or 15 W UVB lamp, UVP (lambda max=302 nm, 820 μW/cm2); both purchased from UVP, Inc., USA. The lamps were mounted in a UVP Model XX-15 lamp holder rested on a XX exposure stand.\n(§2) To give a solution depth of about 3 mm, 0.5 ml reaction volumes were used in clear 24-well plates. To prevent evaporation during the UVA exposure, samples were covered with MICROAMP™ Optical Adhesive Film (ABI) allowing greater than 80% transmission above 330 nm. […] reactions were covered with a quartz window. All reactions were performed at ambient temperature in 10 mM potassium phosphate pH 7.41 (measured at 10 mM and 21° C.), equilibrated to air, in the presence of 100 μM diethylenetriaminepentaacetic acid in order to prevent the effect of adventitious redox-active metal ions, pre-empt the Fenton reaction and avoid hydroxyl radical-induced damage.\n(§3) Reactions with photoexcited pterin-6-carboxylic acid or folic acid were carried out as follows. Samples were exposed in 24-well plates to UVA light in 0.5 ml reaction volumes containing 5-MTHF and folic acid or PCA in the absence or presence of sodium ascorbate in 10 mM potassium phosphate buffer pH 7.42. […]"}, "[2]": {"experiment": "Reaction with photoexcited pterin-6-carboxylic acid under UVA, depletion of 5-MTHF (HPLC)", "protocol": "as §1, §2, §3"}, "[3]": {"experiment": "Rose Bengal photosensitization reaction, depletion of 5-MTHF (HPLC)", "protocol": "Photochemical reactions with Rose Bengal were carried out as follows. Samples in septum-stoppered glass cuvettes were illuminated at a distance of 12 cm by light from a 40 W tungsten lamp passed through a Wratten #16 gelatin filter. Reactions were equilibrated with air or sparged with 100% or 1.8% O2 in argon, or extensively with 100% argon, and illumination was carried out at ambient temperature. Samples were taken through the septum by syringe and injected directly into the HPLC.\n(§4) 5-MTHF photodegradation was assayed by HPLC using the following procedure. Samples were taken during light exposure at various times and analyzed by HPLC on a Luna phenyl-hexyl 5 μm (25×0.46 cm) column (Phenomenex) eluted at a flow rate of 1.5 ml/min with ammonium phosphate (20 mM in ammonium), pH 2.8/acetonitrile (17:1) with detection by UV absorbance using Waters 996, photodiode array spectrometer."}, "[4]": {"experiment": "Rate of reaction with singlet oxygen in water", "format": "physicochemical", "details": "inferred from competition with azide"}, "[5]": {"tested_on": "Supercoiled plasmid DNA, PBR 322", "experiment": "UVA-mediated strand breaks in plasmid DNA, agarose gel electrophoresis", "details": "for strand-breaks in supercoiled plasmid DNA on UVA exposure / effect on the plasmid in the dark: 50 μM; for strand-breaks in supercoiled plasmid DNA on UVA exposure: UVA for 80 min, FIG. 3; for effect on the plasmid in the dark: incubated 80 min in the dark", "protocol": "as §1, §2\nStrand breaks in DNA were detected as follows. Supercoiled plasmid DNA is converted into a nicked circular-form (relaxed) due to single-strand breaks, and subsequently into a linear form due to double-strands breaks. The three forms can be separated by agarose gel electrophoresis. Supercoiled DNA migrates further than the linear form, which in turn migrates further than the relaxed form.\nA mixture of 0.1 μg of plasmid DNA, PBR 322, and folic acid, 5-MTHF or PCA in 10 mM potassium phosphate, pH 7.4, was incubated for 80 min under the above UVA-irradiation conditions for a total exposure of 4 J/cm^2. To partially maintain the concentration of 5-MTHF, a 0.25 mM solution was continuously added to the reaction mixture at 1.1 μl/min using a Harvard syringe pump with magnetic stirring.\nA sample of 10 μl of the reaction mixture was then subjected to agarose gel electrophoresis after addition of 2 μl of 10× gel loading buffer. Agarose gel for electrophoresis was prepared by dissolving 0.9% agarose in 45 mM Tris-borate buffer (pH 8.3), containing 1 mM EDTA. Electrophoresis was run at 4 V/cm for 1 h. The gel was incubated with 1 μg/ml SYBR Safe stain, and the DNA bands were scanned using Fuji FLA-5000 phosphor-imaging system."}, "[6]": {"experiment": "Photodegradation on UVA, UVB or visible light exposure without photosensitizer (HPLC)", "protocol": "as §1, §2, §4"}, "[7]": {"details": "cited from earlier work"}, "[8]": {"tested_on": "Rose Bengal-loaded THP-1 cells", "details": "viable Rose Bengal-loaded THP-1 cells; cited from earlier work"}}, "note": "Entries after “also recorded” stand apart in the source; their conditions may differ.", "data": [{"smiles": "CN1c2c(nc(N)[nH]c2=O)NC[C@@H]1CNc1ccc(C(=O)N[C@@H](CCC(=O)[O-])C(=O)O)cc1.CN1c2c(nc(N)[nH]c2=O)NC[C@@H]1CNc1ccc(C(=O)N[C@@H](CCC(=O)[O-])C(=O)O)cc1.[Ca+2]", "note": "[5-MTHF, 5-Methyl-6S-tetrahydrofolic acid calcium salt]", "values": [{"measurement": "5-MTHF concentration that prevented photodegradation of folic acid", "setting": "[1]; UV exposure", "value": "below 10 μM"}, {"measurement": "folic acid maintained until 5-MTHF decayed below this concentration", "setting": "[1]; photolysis of folic acid in the presence of 5-MTHF, FIG. 1", "value": "below 1 μM"}, {"measurement": "time to complete depletion of 5-MTHF", "setting": "[2]; initial 25 μM 5-MTHF, 50 μM PCA, UVA exposure", "value": "≤ 15", "unit": "min"}, {"measurement": "depletion of 5-MTHF by visible-light sensitized Rose Bengal", "setting": "[3]; 25 μM 5-MTHF, pH 7.4, Rose Bengal, SOD, FIG. 2A", "value": "depleted"}, {"measurement": "effectiveness in scavenging singlet oxygen relative to azide", "setting": "[3]; competition reaction, high concentrations of O2, FIG. 2B", "value": "about 20 fold"}, {"measurement": "rate of reaction with singlet oxygen", "setting": "[4]", "value": "nearly diffusion limited"}, {"measurement": "UVA mediated DNA-damage in the presence of folic acid or PCA", "setting": "[5]; 50 μM folic acid or PCA, UVA 80 min, 5-MTHF added continuously, 10 μM falling to 0.25 μM, calcium salt", "value": "inhibited"}, {"measurement": "cleavage of plasmid DNA induced by the compound alone under UV", "setting": "[5]; 5-MTHF alone, UV", "value": "does not induce cleavage of plasmid DNA"}, {"measurement": "5-MTHF concentration that prevented strand-breaks in plasmid DNA", "setting": "[5]; in the presence of photoexcited PCA", "value": "below 10 μM"}, {"measurement": "stability when illuminated alone", "setting": "[6]; UVA, UVB or visible light, no photosensitizer, calcium salt", "value": "stable; also recorded: unaffected; also recorded: not photolyzed directly by UV"}, {"measurement": "degradation (autooxidation) on exposure to UVA or UVB", "setting": "[6]; in 1 hr, same extent as in the absence of light", "value": "< 5", "unit": "%"}]}, {"smiles": "Nc1nc2ncc(C(=O)O)nc2c(=O)[nH]1", "note": "[PCA, pterin-6 carboxylic acid]", "values": [{"measurement": "strand-breaks in supercoiled plasmid DNA on UVA exposure", "setting": "[5]", "value": "high percentage of strand-breaks"}, {"measurement": "effect on the plasmid in the dark", "setting": "[5]", "value": "no effect"}]}, {"smiles": "O=C1O[C@H]([C@@H](O)CO)C([O-])=C1O.[Na+]", "note": "[ascorbate, sodium ascorbate]", "values": [{"measurement": "maintenance of 5-MTHF throughout the reaction", "setting": "[2]; 1 mM ascorbate, 25 μM 5-MTHF, 10 μM PCA, UVA", "value": "substantially maintained"}, {"measurement": "rate of loss of 5-MTHF in Rose-Bengal induced photosensitization", "setting": "[3]; mM levels of sodium ascorbate, high oxygen, FIG. 2C", "value": "decreased"}, {"measurement": "rate constant for the reaction with singlet oxygen in water", "setting": "[7]", "value": "8.3e+06", "unit": "M⁻¹ s⁻¹"}, {"measurement": "effect on the generation of protein-derived peroxides", "setting": "[8]", "value": "no effect"}]}, {"smiles": "[N-]=[N+]=[N-].[Na+]", "note": "[azide, Sodium azide]", "values": [{"measurement": "decrease of the depletion rate of 5-MTHF", "setting": "[3]; 0.5 mM azide, 100% O2, 10 μM Rose Bengal, FIG. 2B", "value": "about 50%"}, {"measurement": "decrease of the initial rate of depletion of 5-MTHF", "setting": "[3]; 5 mM azide, 100% O2, 10 μM Rose Bengal, FIG. 2B", "value": "about 80%"}, {"measurement": "rate constant for the reaction with singlet oxygen in water", "setting": "[7]", "value": "4.5e+08", "unit": "M⁻¹ s⁻¹"}, {"measurement": "protection against UVA mediated DNA-damage", "setting": "[5]; 10 mM sodium azide, same conditions", "value": "full protection"}]}, {"smiles": "Nc1nc2ncc(CNc3ccc(C(=O)N[C@@H](CCC(=O)O)C(=O)O)cc3)nc2c(=O)[nH]1", "note": "[folic acid]", "values": [{"measurement": "strand-breaks in supercoiled plasmid DNA on UVA exposure", "setting": "[5]", "value": "high percentage of strand-breaks"}, {"measurement": "effect on the plasmid in the dark", "setting": "[5]", "value": "no effect"}, {"measurement": "photolysis products on exposure to UVA", "setting": "[6]; UVA, HPLC, similar results with UVB", "value": "initially yields, p-aminobenzoylglutamate and 6-FP"}]}]}
